Here are results for eight compounds from patent publication US11161817B2, “Quinoline derivative and use thereof as tyrosine kinase inhibitor” (CHONGQING PHARMACEUTICAL INDUSTRIAL RESEARCH INSTITUTE CO. …, priority 2017, dated 2021).

The structures appear in SMILES notation. Read-outs that look alike come from different tables or passages of the source.

Series [1] concerns the target PDGFRβ(h) (Homo sapiens, UniProt P09619). Briefly: In vitro kinase activity test, PDGFRβ(h).
Description: (§1) Protein kinase with a corresponding enzyme concentration of X (shown in table 1), peptide substrate with a concentration of Y, ATP with a specific concentration, 8 mM MOPS (pH 7.0), and 10 mM MgCl2 were added. The detection plate was P30 filtermat, and the reaction was performed at room temperature for T minutes, and the reaction system was 10 μL.
(§2) The reaction was terminated by adding 0.5% phosphoric acid to the kinase reaction solution, and the plate was read by an Envision instrument.
(§3) The data were converted into phosphorylation rate and inhibition rate, and subjected to parameter curve-fitting (GraphPad Software) to obtain IC50 data of the compounds.
Series [2] is described as follows: Pharmacokinetic evaluation in rats, intravenous and oral administration. The conditions noted are these: for time to peak concentration / AUC(0-t) / bioavailability / Cmax: male SD rats, intragastric, 5 mg/kg, single; for AUC(0-t) / bioavailability / Cmax: rat, plasma, po; for Cmax: read-out: peak concentration (Cmax). The class given is in vivo, SD rats. Here is the method:
Experimental objective: evaluation of the oral absorption in animals of the product of Embodiment 1 by intravenous and oral administration in rats
Experimental materials: male, SD rats, EDTA-K2
0.5 mg/mL of the test compound suspended in 0.5% Methocel/0.2% Tween 80 was administered intragastrically to male SD rats (overnight fasting, 7-11 week-age) at a dose of 5 mg/kg. About 30 μL blood was collected from the jugular or caudal vein of each animal in the two groups at 0.25, 0.5, 1.0, 2.0, 4.0, 8.0, and 24 hours after administration, added into anticoagulated tubes containing EDTA-K2, and the mixture was centrifuged to obtain the plasma. LC-MS/MS method was used to determine the drug concentration in blood, and WinNonlin™ Version 6.3 (Pharsight, Mountain View, Calif.) pharmacokinetic software was used to calculate the relevant pharmacokinetic parameters by non-compartment model logarithmic trapezoidal method.

Series [3] deals with FGFR1(h) (Homo sapiens, UniProt P11362). Briefly: In vitro kinase activity test, FGFR1(h).
Description: as §1, §2, §3
For series [4], the target named is c-Met (Homo sapiens, UniProt P08581). Briefly: In vitro kinase activity test, c-Met.
Description: as §1, §2, §3
For series [5], the target named is FGFR4(h) (Homo sapiens, UniProt P22455). Briefly: In vitro kinase activity test, FGFR4(h).
Description: as §1, §2, §3
Series [6] has as its target MINK(h) (Homo sapiens, UniProt Q8N4C8). Briefly: In vitro kinase activity test, MINK(h).
Description: as §1, §2, §3
Series [7] has as its target cKit(V560G)(h) (Homo sapiens, UniProt P10721, V560G). Briefly: In vitro kinase activity test, cKit(V560G)(h).
Description: as §1, §2, §3
Series [8] deals with cKit(h) (Homo sapiens, UniProt P10721). Briefly: In vitro kinase activity test, cKit(h).
Description: as §1, §2, §3
For series [9], the target named is FGFR2(h) (Homo sapiens, UniProt P21802). Briefly: In vitro kinase activity test, FGFR2(h).
Description: as §1, §2, §3
The target in series [10] is Flt1(h) (Homo sapiens, UniProt P17948). Briefly: In vitro kinase activity test, Flt1(h).
Description: as §1, §2, §3
Series [11] concerns the target Flt4(h) (Homo sapiens, UniProt P35916). Briefly: In vitro kinase activity test, Flt4(h).
Description: as §1, §2, §3
In series [12] the target is Lck(h) (Homo sapiens, UniProt P06239). Briefly: In vitro kinase activity test, Lck(h).
Description: as §1, §2, §3
For series [13], the target named is FGFR3(h) (Homo sapiens, UniProt P22607). Briefly: In vitro kinase activity test, FGFR3(h).
Description: as §1, §2, §3
Series [14] addresses TNIK(h) (Homo sapiens, UniProt Q9UKE5). Briefly: In vitro kinase activity test, TNIK(h).
Description: as §1, §2, §3
Series [15] can be described thus: Pharmacokinetic evaluation in rats, intravenous and oral administration. The class given is in vivo, SD rats. The note with it: for Vd / AUC(0-t) / half-life / clearance: rat, plasma, male SD rats, intravenous injection, 1.0 mg/kg, single; for Vd: read-out: apparent volume of distribution at steady state (Vdss); for AUC(0-t): read-out: area under the plasma concentration-time curve (AUC0-last); for half-life: read-out: elimination half-life (T1/2) (converted); for clearance: read-out: plasma clearance (CL).

Series [16] concerns the target T1, Aurora-A(h) (Homo sapiens, UniProt O14965).
T1 sequence (O14965 1-403): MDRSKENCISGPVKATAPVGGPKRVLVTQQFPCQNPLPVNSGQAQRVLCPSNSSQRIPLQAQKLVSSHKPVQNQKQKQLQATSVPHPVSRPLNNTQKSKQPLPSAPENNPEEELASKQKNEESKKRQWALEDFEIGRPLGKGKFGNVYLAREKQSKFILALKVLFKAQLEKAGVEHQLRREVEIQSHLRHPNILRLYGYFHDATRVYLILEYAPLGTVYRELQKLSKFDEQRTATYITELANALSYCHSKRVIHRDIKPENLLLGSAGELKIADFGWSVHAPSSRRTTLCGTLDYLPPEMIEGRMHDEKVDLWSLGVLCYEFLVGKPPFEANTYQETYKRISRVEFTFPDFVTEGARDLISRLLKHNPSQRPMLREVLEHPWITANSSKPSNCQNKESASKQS
Briefly: In vitro kinase activity test, Aurora-A(h). The note with it: read-out: Aurora-A(h) IC50; Table 2; ATP 10 μM.
Description: as §1, §2, §3

For series [17], the target named is KDR(h) (Homo sapiens, UniProt P35968). Briefly: In vitro kinase activity test, KDR(h). The conditions noted are these: read-out: KDR(h) IC50; Table 2; ATP 10 μM.
Description: as §1, §2, §3
For series [18], the target named is Abl(h) (Homo sapiens, UniProt P00519). Briefly: In vitro kinase activity test, Abl(h).
Description: as §1, §2, §3
The nature of series [19]: Pharmacokinetic evaluation in mice, intravenous and oral administration. The conditions noted are these: male Balb/c nude mice, single. The class given is in vivo. On the procedure: Experimental objective: evaluation of the oral absorption in animals of the product of Embodiment 1 by intravenous and oral administration in mice
Experimental materials: Balb/c nude mice, EDTA-K2
Experimental procedure: 0.5 mg/mL 5% DMSO/95% (10% HP-β-CD) clear solution of the product of Embodiment 1 was injected intravenously into male Balb/c nude mice (overnight fasting, 7-9 week-age) via caudal vein at a dose of 1 mg/kg. 0.5 mg/mL test compound suspended in 0.5% Methocel/0.2% Tween 80 was administered intragastrically to male Balb/c nude mice (overnight fasting, 7-9 week-age) at a dose of 5 mg/kg. About 30 μL blood was collected from the jugular or caudal vein of each animal in the two groups at 0.25, 0.5, 1.0, 2.0, 4.0, 8.0 and 24 hours after administration, added into anticoagulated tubes containing EDTA-K2, and the mixture was centrifuged to obtain the plasma. LC-MS/MS method was used to determine the drug concentration in blood, and WinNonlin™ Version 6.3 (Pharsight, Mountain View, Calif.) pharmacokinetic software was used to calculate the relevant pharmacokinetic parameters by non-compartment model logarithmic trapezoidal method.

The mark [20] stands for this setting: c-Met kinase activity IC50, Table 3, value 45.6 is from the second test (Note 1).
Setting [21] is: rats, intravenous administration.

Chain of c-Met (P08581 25-1390): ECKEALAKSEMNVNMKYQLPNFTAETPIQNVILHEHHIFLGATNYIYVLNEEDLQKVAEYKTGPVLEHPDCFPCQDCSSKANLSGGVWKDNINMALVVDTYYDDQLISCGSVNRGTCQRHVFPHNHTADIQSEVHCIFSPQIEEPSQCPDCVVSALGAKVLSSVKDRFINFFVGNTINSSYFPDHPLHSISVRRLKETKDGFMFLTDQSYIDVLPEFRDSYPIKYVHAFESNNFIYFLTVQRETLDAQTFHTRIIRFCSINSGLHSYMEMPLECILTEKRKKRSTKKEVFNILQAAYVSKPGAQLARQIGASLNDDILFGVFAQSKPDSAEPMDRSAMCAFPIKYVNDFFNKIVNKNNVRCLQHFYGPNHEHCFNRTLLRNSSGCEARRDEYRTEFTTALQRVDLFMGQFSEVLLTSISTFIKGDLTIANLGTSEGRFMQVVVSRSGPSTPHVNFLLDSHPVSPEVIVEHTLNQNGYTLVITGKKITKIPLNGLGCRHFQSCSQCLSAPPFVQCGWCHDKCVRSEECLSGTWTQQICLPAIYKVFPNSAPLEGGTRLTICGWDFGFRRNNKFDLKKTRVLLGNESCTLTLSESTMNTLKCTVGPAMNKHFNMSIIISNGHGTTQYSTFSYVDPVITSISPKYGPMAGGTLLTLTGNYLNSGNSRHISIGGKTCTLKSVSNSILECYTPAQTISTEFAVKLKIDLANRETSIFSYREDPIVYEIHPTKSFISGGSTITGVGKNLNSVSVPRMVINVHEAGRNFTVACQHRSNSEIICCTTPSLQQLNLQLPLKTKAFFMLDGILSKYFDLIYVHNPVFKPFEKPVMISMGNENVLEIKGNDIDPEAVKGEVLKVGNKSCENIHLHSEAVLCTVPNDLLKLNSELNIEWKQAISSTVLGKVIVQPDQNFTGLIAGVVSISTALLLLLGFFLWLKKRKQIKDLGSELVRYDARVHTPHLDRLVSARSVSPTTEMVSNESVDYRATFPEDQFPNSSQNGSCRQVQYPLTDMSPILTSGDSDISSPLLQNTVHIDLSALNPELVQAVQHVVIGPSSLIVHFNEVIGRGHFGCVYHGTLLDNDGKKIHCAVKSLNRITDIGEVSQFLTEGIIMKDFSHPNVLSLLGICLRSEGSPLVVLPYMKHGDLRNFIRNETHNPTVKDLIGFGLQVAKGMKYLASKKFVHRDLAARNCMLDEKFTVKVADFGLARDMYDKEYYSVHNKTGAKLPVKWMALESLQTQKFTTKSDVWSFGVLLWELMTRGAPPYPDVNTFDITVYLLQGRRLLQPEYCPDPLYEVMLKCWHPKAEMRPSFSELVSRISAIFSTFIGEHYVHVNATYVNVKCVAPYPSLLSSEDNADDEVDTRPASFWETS
Chain of Abl(h) (P00519 whole entry): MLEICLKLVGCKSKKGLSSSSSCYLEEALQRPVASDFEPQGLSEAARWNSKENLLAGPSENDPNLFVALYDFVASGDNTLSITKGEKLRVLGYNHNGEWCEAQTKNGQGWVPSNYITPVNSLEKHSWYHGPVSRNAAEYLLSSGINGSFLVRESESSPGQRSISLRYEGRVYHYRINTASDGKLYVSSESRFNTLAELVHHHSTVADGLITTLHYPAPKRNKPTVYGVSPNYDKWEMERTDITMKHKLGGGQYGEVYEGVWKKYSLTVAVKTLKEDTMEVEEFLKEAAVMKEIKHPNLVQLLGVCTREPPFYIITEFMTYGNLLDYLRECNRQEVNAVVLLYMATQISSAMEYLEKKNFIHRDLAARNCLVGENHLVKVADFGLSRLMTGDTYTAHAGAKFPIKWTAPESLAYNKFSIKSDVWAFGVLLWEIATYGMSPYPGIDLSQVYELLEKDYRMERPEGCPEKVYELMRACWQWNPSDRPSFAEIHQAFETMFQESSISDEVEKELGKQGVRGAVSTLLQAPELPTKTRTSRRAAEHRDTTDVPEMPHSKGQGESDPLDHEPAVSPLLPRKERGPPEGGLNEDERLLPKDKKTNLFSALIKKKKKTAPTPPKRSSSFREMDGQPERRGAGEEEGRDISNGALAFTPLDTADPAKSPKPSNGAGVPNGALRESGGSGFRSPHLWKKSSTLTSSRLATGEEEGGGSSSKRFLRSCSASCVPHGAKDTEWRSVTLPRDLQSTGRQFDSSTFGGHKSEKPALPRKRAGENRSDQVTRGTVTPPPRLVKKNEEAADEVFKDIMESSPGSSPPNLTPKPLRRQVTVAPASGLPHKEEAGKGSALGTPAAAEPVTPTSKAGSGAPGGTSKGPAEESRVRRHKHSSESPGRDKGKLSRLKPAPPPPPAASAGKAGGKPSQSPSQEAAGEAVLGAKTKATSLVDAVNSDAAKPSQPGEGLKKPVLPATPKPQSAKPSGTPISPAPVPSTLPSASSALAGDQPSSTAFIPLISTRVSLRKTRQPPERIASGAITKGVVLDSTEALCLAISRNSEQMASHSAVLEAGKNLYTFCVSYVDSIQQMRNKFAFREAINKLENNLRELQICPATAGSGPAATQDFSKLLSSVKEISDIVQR
Chain of FGFR1(h) (P11362 22-822): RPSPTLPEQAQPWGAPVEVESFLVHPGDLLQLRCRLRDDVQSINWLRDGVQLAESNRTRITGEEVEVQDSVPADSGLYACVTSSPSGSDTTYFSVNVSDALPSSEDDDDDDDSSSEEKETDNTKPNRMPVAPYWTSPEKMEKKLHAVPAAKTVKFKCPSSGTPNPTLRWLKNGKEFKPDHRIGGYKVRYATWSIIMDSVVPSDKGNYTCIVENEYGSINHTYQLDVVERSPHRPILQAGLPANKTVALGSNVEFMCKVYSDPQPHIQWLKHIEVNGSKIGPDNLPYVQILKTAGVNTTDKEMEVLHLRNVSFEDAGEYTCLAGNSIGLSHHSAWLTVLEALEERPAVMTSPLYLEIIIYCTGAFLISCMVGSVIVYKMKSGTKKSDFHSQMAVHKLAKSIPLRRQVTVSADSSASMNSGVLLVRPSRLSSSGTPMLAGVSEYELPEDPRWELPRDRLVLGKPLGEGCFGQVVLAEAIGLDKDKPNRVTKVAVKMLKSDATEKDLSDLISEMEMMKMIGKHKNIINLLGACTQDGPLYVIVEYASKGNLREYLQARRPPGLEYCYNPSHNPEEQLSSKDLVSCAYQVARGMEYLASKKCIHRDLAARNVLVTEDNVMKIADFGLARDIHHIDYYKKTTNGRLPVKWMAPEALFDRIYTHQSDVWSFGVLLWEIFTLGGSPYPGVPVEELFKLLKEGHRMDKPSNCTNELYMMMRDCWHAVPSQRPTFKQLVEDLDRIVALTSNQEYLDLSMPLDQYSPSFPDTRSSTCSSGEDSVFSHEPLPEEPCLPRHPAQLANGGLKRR
Chain of FGFR4(h) (P22455 22-802): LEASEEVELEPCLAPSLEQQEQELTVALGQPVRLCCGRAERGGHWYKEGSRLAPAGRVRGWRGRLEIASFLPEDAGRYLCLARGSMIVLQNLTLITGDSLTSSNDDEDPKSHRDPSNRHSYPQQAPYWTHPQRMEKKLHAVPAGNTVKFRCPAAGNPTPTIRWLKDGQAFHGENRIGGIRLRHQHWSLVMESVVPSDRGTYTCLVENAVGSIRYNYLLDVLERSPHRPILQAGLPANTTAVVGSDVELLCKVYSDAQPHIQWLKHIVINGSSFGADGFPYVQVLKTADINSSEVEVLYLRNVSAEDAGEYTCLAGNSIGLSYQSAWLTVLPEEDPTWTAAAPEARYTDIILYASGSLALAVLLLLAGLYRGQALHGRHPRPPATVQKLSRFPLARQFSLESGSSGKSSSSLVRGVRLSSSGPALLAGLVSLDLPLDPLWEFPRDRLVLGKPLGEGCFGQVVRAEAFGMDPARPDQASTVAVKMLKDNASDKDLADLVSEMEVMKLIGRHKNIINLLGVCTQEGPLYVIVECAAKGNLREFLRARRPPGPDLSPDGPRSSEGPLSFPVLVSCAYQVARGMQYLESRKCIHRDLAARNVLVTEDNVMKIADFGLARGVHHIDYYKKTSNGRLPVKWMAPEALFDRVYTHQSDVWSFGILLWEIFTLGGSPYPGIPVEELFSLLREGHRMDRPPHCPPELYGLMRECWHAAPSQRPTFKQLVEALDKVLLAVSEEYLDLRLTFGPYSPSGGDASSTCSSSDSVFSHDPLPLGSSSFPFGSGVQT
Chain of FGFR2(h) (P21802 22-821): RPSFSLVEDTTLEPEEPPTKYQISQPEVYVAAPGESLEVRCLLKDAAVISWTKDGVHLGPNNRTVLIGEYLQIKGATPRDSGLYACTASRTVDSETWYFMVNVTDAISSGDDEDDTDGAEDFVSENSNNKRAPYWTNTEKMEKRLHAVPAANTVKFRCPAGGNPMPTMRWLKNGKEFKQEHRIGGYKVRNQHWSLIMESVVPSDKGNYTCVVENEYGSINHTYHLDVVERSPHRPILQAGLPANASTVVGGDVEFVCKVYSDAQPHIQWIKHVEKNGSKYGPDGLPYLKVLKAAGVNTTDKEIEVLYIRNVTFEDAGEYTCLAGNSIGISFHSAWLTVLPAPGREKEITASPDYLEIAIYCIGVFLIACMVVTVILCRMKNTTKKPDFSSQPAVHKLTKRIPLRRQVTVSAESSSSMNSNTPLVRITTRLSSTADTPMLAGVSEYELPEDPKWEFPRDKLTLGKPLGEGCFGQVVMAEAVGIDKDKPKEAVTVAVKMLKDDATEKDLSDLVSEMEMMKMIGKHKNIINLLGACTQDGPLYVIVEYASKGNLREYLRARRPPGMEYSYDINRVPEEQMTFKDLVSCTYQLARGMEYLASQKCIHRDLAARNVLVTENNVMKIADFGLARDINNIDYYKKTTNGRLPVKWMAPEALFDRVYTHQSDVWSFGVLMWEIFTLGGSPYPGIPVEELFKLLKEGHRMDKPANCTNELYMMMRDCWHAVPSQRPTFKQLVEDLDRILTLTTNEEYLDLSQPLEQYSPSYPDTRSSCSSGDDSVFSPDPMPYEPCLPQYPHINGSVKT

For the compound `COc1cc2nccc(Oc3ccc(NC(=O)NC4CC4)c(Cl)c3)c2cc1C(N)=O` [Comparative Compound 1, Lovatinib], the IC50 – broadly, the concentration needed to halve the response being measured – in series [1] is 275 nM; in series [3] it was 76.6 nM; in [4] (c-Met IC50, Table 2, ATP 10 μM) it was 598 nM; in series [5], 1120 nM; in [6], 359 nM; in series [7], 596 nM. For the same compound, the IC50 in series [8] was 78 nM; in series [9] it was 14 nM; in series [10] it was 13 nM; in series [11], 3 nM; in [12], 69 nM; in [13] it was 132 nM. In series [14], this compound registered an IC50 of 91 nM. In addition, in [2], the “time to peak concentration” value turned out to be 1.25 h. Also, the AUC(0-t) in [2] came to 44.5 µM·h; in series [15], 15.1 µM·h. The bioavailability in series [2] worked out at 58.7%. Besides, in series [2], the Cmax amounted to 10.1 µM. Besides, in [15], the Vd is 0.407 L/kg. Further, the half-life in series [15] is 2.53 h. The clearance in series [15] is 2.6 mL/min/kg.

On to `COc1cc2nccc(Oc3ccc(NC(=S)NC4CC4)c(Cl)c3F)c2cc1C(N)=O` [Comparative Compound 2], for which the IC50 in series [1] (read-out: PDGFRβ(h) IC50, Table 2, ATP 10 μM) is 31 nM; in [3] (read-out: FGFR1(h) IC50, Table 2, ATP 5 μM), 69 nM; in series [6] (read-out: MINK(h) IC50, Table 2, ATP 10 μM), 55 nM; in series [9] it was 15 nM; in [10] (read-out: Flt1(h) IC50, Table 2, ATP 10 μM) it was 31 nM; in series [11], 8 nM. Also, the IC50 in [12] (read-out: Lck(h) IC50, Table 2, ATP 10 μM) was determined as 252 nM; in [16], 262 nM; in series [17], 7 nM; in series [14] (read-out: TNIK(h) IC50, Table 2, ATP 10 μM), 118 nM.

Turning to `COc1cc2nccc(Oc3cc(F)c(NC(=O)NC4CC4)cc3F)c2cc1C(N)=O` [Comparative Compound 3], the IC50 in series [3] was 160 nM; in [4] (setting [20]), over 10000 nM; in series [5], 509 nM; in series [18], 817 nM.

As to `COc1cc2nccc(Oc3ccc(NC(=O)NC4CC4)c(F)c3F)c2cc1C(N)=O` [Comparative Compound 4], the IC50 turned out to be 31 nM in [3], 79.8 nM in series [4] (setting [20]), 108 nM in [5] and 292 nM in series [18].

As to `COc1cc2nccc(Oc3cc(Cl)c(NC(=O)NC4CC4)cc3F)c2cc1C(N)=O` [Comparative Compound 5], the IC50 in series [3] is 89 nM; in series [4] (setting [20]), 32 nM; in series [5], 137 nM; in [18], 207 nM.

`COc1cc2nccc(Oc3ccc(NC(=O)NC4CC4)c(F)c3)c2cc1C(N)=O` [Comparative Compound 6]: the IC50 in series [3] was 1740 nM; in [4] (setting [20]) it was 282 nM; in [5], 4560 nM; in series [18], 2210 nM.

Consider `COc1cc2nccc(Oc3cc(F)c(NC(=O)NC4CC4)c(Cl)c3)c2cc1C(N)=O` [Comparative Compound 7], for which the IC50 in [3] was 54 nM; in series [4] (setting [20]), over 10000 nM; in series [5] it was 1110 nM.

With `COc1cc2nccc(Oc3ccc(NC(=O)NC4CC4)c(Cl)c3F)c2cc1C(N)=O` [Embodiment 1], the “time to peak concentration” value in series [2] is listed as 0.375 h; in series [19] (intragastric, 5 mg/kg) it was 0.5 h. In addition, the AUC(0-t) was found to be 71.1 µM·h in series [2]; 24.9 µM·h in series [19] (mouse, plasma, po, intragastric, 5 mg/kg, read-out: AUC0-last); 3.21 µM·h in [19] (mouse, plasma, intravenous injection, 1.0 mg/kg, read-out: area under the plasma concentration-time curve (AUC0-last)); 23.4 µM·h in [15]. The bioavailability in [2] stood at 60.8%; in [19] (mouse, plasma, po, intragastric, 5 mg/kg), 144%. Besides, the Cmax in [2] worked out at 19.6 µM; in [19] (mouse, plasma, po, intragastric, 5 mg/kg, read-out: peak concentration (Cmax)), 9.83 µM. Besides, the “AUC0-last increased, compared with Comparative Compound 1” value in series [2] (rats, oral absorption) worked out at 27%; in [15] (setting [21]), 55%. The Vd is 1.48 L/kg in series [19] (mouse, plasma, intravenous injection, 1.0 mg/kg, read-out: apparent volume of distribution at steady state (Vdss)) and 0.259 L/kg in series [15]. For the same compound, the half-life was 2.68 h in [19] (mouse, plasma, intravenous injection, 1.0 mg/kg, read-out: elimination half-life (T1/2) (converted)) and 2.64 h in series [15]. The clearance in series [19] (mouse, plasma, intravenous injection, 1.0 mg/kg, read-out: plasma clearance (CL)) came out at 11 mL/min/kg; in series [15] it was 1.6 mL/min/kg. The “plasma clearance reduced, compared with Comparative Compound 1” value in series [15] (setting [21]) is listed as about 38%.
